{
  "source": "paper PMC9356275",
  "about": "“A quantitative high-throughput screen identifies compounds that lower expression of the SCA2-and ALS-associated gene ATXN2” (The Journal of Biological Chemistry, 2022)",
  "key": {"in vitro": {"experiment": "in vitro", "details": "human", "method": "The values for H2 and S2 were used as replicates to calculate IC50s and to assess cell viability.\nCompounds were plated at 2× concentrations in phenol red–free DMEM in 25 μl in 384-well plates with each compound dose plated in triplicate. An equal volume of S2, H2, or SC cells (24,000 cells/well) suspended in phenol red–free DMEM with 10% fetal bovine serum and 1× penicillin/streptomycin were added. Cells were grown 24 h and then assayed first by using the CellTiter-Fluor reagent (20 μl) followed by the addition of Bright-Glo (65 μl) luciferase assay, using a multimode plate reader (Beckman; DT880). Values were reported as the mean ± SD with n = 3. IC50s were determined by the Hill coefficient method using an online tool (https://www.aatbio.com/tools/ic50-calculator)."}, "ATXN2-luc [1]": {"tested_on": "ATXN2-luc", "experiment": "Secondary assays: ATXN2-luc in S2 and H2 cells, 12 doses, Bright-Glo", "assay_type": "cell-based, human", "details": "for min ATXN2-luc (%): minimum ATXN2-luc signal over 12 doses, H2 and S2 cells; for IC50: Homo sapiens"}, "ATXN2-luc [2]": {"tested_on": "ATXN2-luc", "experiment": "NCATS qHTS (LOPAC pilot, primary and confirmation): ATXN2-luc in S2 cells, 1536-well, Steady-Glo", "assay_type": "cell-based, human", "how_it_was_run": "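[…] S2 cells expressing ATXN2-luc in phenol red–free DMEM screened in 1536-well qHTS format. Luciferase read by Steady-Glo luminescence after 5 min at room temperature (2 s exposure), multiplexed with CellTiter-Fluor viability.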"}, "CMV-luc [3]": {"tested_on": "CMV-luc", "experiment": "Secondary assays: CMV-luc in SC cells, Bright-Glo", "assay_type": "cell-based, human", "details": "minimum CMV-luc signal in SC cells over 12 doses; summary data"}, "ATXN2-luc [4]": {"tested_on": "ATXN2-luc", "experiment": "MSSR hit retest: ATXN2-luc luciferase assay, average of H2 and S1 cells (1 and 10 uM)", "assay_type": "cell-based, human", "details": "Homo sapiens; for activity at 1 µM: read-out: H2&S1 ave luc 1uM; for activity at 10 µM: head line r3 10uM", "source_text": "(§1) Supplement mmc2.xlsx, sheet \"43 annotated compounds\""}, "H2 and S1 cells": {"tested_on": "H2 and S1 cells", "experiment": "Paired MTT viability assay, average of H2 and S1 cells (1 and 10 uM)", "assay_type": "cell-based, human", "details": "Homo sapiens", "source_text": "as §1"}, "ATXN2-luc [5]": {"tested_on": "ATXN2-luc", "experiment": "MSSR pilot screen: ATXN2-luc luciferase assay (Bright-Glo) in H2 cells, single 10 μM dose", "assay_type": "cell-based, human", "details": "for SD from mean (ATXN2-luc, Z-score): H2 cells, single dose (title: 10 μM compound), overnight; for ¦Score/1SD¦: absolute score divided by 1SD (0.891 or 0.9)"}, "endogenous ATXN2": {"tested_on": "endogenous ATXN2", "experiment": "Endogenous ATXN2 mRNA by qPCR in HEK-293 cells", "assay_type": "cell-based", "details": "Homo sapiens, HEK293, 48 h, read-out: IC50, endogenous ATXN2 by qPCR"}, "H2 cells": {"tested_on": "H2 cells", "details": "1 nM"}, "ATXN2-luc [6]": {"tested_on": "ATXN2-luc", "experiment": "ATXN2-luc luciferase dose-response in H2 cells, 48 h", "assay_type": "cell-based", "details": "Homo sapiens, read-out: IC50, ATXN2-luc expression by luciferase assay"}, "CMV-luc [7]": {"tested_on": "CMV-luc", "experiment": "MSSR counterscreen: CMV-luc expression in HC cells", "assay_type": "cell-based, human", "details": "for CMV-luc, averages as percent of no compound control: HC cells, n=4 wells"}, "ATXN2-luc [8]": {"tested_on": "ATXN2-luc", "experiment": "MSSR hit retest / multiconcentration testing: ATXN2-luc luciferase assay in H2 cells (1 and 10 μM)", "assay_type": "cell-based, human", "details": "1 uM compound; luciferase, average of H2 and S1 cells expressing ATXN2-luc; rescreen"}, "[9]": {"details": "Homo sapiens, LOPAC library screening optimization, logarithm of AC50 (negative values), read-out: Log AC50 (converted)"}, "[10]": {"details": "Homo sapiens, LOPAC library screening optimization, read-out: AC50"}, "[11]": {"details": "LOPAC library screening optimization, read-out: AC50"}, "[12]": {"details": "1 uM compound, average of H2 and S1 cells"}, "[13]": {"details": "average of H2 and S1 cells, read-out: H2&S1 ave luc 10uM"}, "[14]": {"details": "1 uM compound, read-out: H2&S1 ave MTT 1uM"}, "[15]": {"details": "10 uM compound, read-out: H2&S1 ave MTT 10uM"}, "[16]": {"details": "pilot screen at 10 µM compound, H2 cells expressing ATXN2-luc"}},
  "note": "Structures can show the parent of a compound that is named as a salt. Where two headings read alike, the source gives them in different places.",
  "data": [
    {"smiles": "CC[C@H](CO)Nc1nc(NCc2ccccc2)c2ncn(C(C)C)c2n1", "note": "[NCGC00094374-05, roscovitine]", "values": [
      {"measurement": "viability at 24 h", "setting": "in vitro", "value": 77.8, "unit": "%"},
      {"measurement": "min ATXN2-luc (%)", "setting": "ATXN2-luc [1]; summary data", "value": 57.3224, "unit": "%"},
      {"measurement": "AC50", "setting": "ATXN2-luc [2]; [9]", "value": 28200, "unit": "nM"},
      {"measurement": "AC50", "setting": "ATXN2-luc [2]; [10]", "value": 28200, "unit": "nM"},
      {"measurement": "Log AC50", "setting": "ATXN2-luc [2]; LOPAC library screening optimization, logarithm of AC50 (negative values)", "value": -4.5},
      {"measurement": "AC50", "setting": "ATXN2-luc [2]; [11]", "value": 31600, "unit": "nM"},
      {"measurement": "min SC luc (%)", "setting": "CMV-luc [3]", "value": 82.4469, "unit": "%"}
    ]},
    {"smiles": "C[C@@H]1O[C@@H](O[C@H]2C[C@@H](O)[C@]3(CO)[C@H]4[C@H](O)C[C@]5(C)[C@@H](C6=CC(=O)OC6)CC[C@]5(O)[C@@H]4CC[C@]3(O)C2)[C@H](O)[C@H](O)[C@H]1O", "note": "[OUABAIN]", "values": [
      {"measurement": "activity at 1 µM", "setting": "ATXN2-luc [4]; [12]", "value": 14, "unit": "%"},
      {"measurement": "activity at 10 µM", "setting": "ATXN2-luc [4]; [13]", "value": 12, "unit": "%"},
      {"measurement": "viability at 24 h", "setting": "in vitro", "value": 74.3, "unit": "%"},
      {"measurement": "IC50", "setting": "ATXN2-luc [1]; ATXN2-luc luciferase assays in H2 and S2 cells, 12 doses plus a zero dose, summary data, read-out: Mean IC50", "value": 122, "unit": "nM"},
      {"measurement": "min ATXN2-luc (%)", "setting": "ATXN2-luc [1]; summary data", "value": 6.982, "unit": "%"},
      {"measurement": "AC50", "setting": "ATXN2-luc [2]; [9]", "value": "< 90", "unit": "nM"},
      {"measurement": "AC50", "setting": "ATXN2-luc [2]; [10]", "value": "< 90", "unit": "nM"},
      {"measurement": "Curve Class", "setting": "ATXN2-luc [2]; LOPAC library (1,280 compounds) screening optimization, signed sub-classes (-1.1, -2.2, -3 ...)", "value": -1.1},
      {"measurement": "AC50", "setting": "ATXN2-luc [2]; [11]", "value": 112, "unit": "nM"},
      {"measurement": "viability at 1 µM", "setting": "H2 and S1 cells; [14]", "value": 51.8, "unit": "%"},
      {"measurement": "viability at 10 µM", "setting": "H2 and S1 cells; [15]", "value": 60.4, "unit": "%"},
      {"measurement": "min SC luc (%)", "setting": "CMV-luc [3]", "value": 122.219, "unit": "%"},
      {"measurement": "SD from mean (ATXN2-luc, Z-score)", "setting": "ATXN2-luc [5]", "value": -3.832, "unit": "SD"},
      {"measurement": "SD from mean (pilot screen)", "setting": "ATXN2-luc [5]; pilot screen", "value": -3.832, "unit": "SD"},
      {"measurement": "SD from mean (pilot screen)", "setting": "ATXN2-luc [5]; [16]", "value": -3.832},
      {"measurement": "¦Score/1SD¦", "setting": "ATXN2-luc [5]; pilot screen", "value": 4.26}
    ]},
    {"smiles": "C[C@@H]1O[C@@H](O[C@@H]2C=C3CC[C@@H]4[C@H](CC[C@]5(C)[C@@H](c6ccc(=O)oc6)CC[C@]45O)[C@@]3(C)CC2)[C@H](O)[C@H](O)[C@H]1O", "note": "[Proscillaridin A]", "values": [
      {"measurement": "activity at 1 µM", "setting": "ATXN2-luc [4]", "value": 54, "unit": "%"},
      {"measurement": "activity", "setting": "ATXN2-luc [4]; read-out: H2&S1 ave luc 10uM", "value": 22, "unit": "%"},
      {"measurement": "viability at 24 h", "setting": "in vitro", "value": 74.2, "unit": "%"},
      {"measurement": "IC50", "setting": "ATXN2-luc [1]; 24 h, read-out: IC50 for lowering ATXN2-luc", "value": 17, "unit": "nM"},
      {"measurement": "min ATXN2-luc (%)", "setting": "ATXN2-luc [1]; summary data", "value": 7.9859, "unit": "%"},
      {"measurement": "IC50", "setting": "endogenous ATXN2", "value": 677, "unit": "nM"},
      {"measurement": "Cellular viability (MTT)", "setting": "H2 cells", "value": "minimal effect on cellular viability"},
      {"measurement": "viability at 1 µM", "setting": "H2 and S1 cells; read-out: H2&S1 ave MTT 1uM, 1 uM compound", "value": 47.8, "unit": "%"},
      {"measurement": "viability at 10 µM", "setting": "H2 and S1 cells; read-out: H2&S1 ave MTT 10uM, 10 uM compound", "value": 45, "unit": "%"},
      {"measurement": "IC50", "setting": "ATXN2-luc [6]", "value": 52, "unit": "nM"},
      {"measurement": "min SC luc (%)", "setting": "CMV-luc [3]", "value": 121.976, "unit": "%"},
      {"measurement": "SD from mean (ATXN2-luc, Z-score)", "setting": "ATXN2-luc [5]", "value": -7.684, "unit": "SD"},
      {"measurement": "SD from mean (pilot screen)", "setting": "ATXN2-luc [5]; pilot screen", "value": -7.684, "unit": "SD"},
      {"measurement": "SD from mean (pilot screen)", "setting": "ATXN2-luc [5]; [16]", "value": -7.684},
      {"measurement": "¦Score/1SD¦", "setting": "ATXN2-luc [5]; pilot screen", "value": 8.62}
    ]},
    {"smiles": "CN1CCN(CCCN2c3ccccc3Sc3ccc(C(F)(F)F)cc32)CC1", "note": "[TRIFLUOPERAZINE HYDROCHLORIDE]", "values": [
      {"measurement": "activity at 1 µM", "setting": "ATXN2-luc [4]; [12]", "value": 105, "unit": "%"},
      {"measurement": "activity at 10 µM", "setting": "ATXN2-luc [4]; [13]", "value": 1.54, "unit": "%"},
      {"measurement": "CMV-luc, averages as percent of no compound control", "setting": "CMV-luc [7]; 0.1 uM compound", "value": "94.6408% of no compound control"},
      {"measurement": "CMV-luc, averages as percent of no compound control", "setting": "CMV-luc [7]; 1 uM compound", "value": "100.563% of no compound control"},
      {"measurement": "CMV-luc, averages as percent of no compound control", "setting": "CMV-luc [7]; 10 uM compound", "value": "98.5115% of no compound control"},
      {"measurement": "Comment on CMV-luc inhibition", "setting": "CMV-luc [7]; result in words", "value": "No CMV-luc inhibition at 10 uM"},
      {"measurement": "ATXN2 luc activity (call)", "setting": "CMV-luc [7]; summary call for the 12 pilot compounds tested on CMV-luc", "value": "Unclear"},
      {"measurement": "viability at 1 µM", "setting": "H2 and S1 cells; [14]", "value": 88.1, "unit": "%"},
      {"measurement": "viability at 10 µM", "setting": "H2 and S1 cells; [15]", "value": 8.76, "unit": "%"},
      {"measurement": "H2&S1 ave luc 1uM", "setting": "ATXN2-luc [8]", "value": 105},
      {"measurement": "SD from mean (ATXN2-luc, Z-score)", "setting": "ATXN2-luc [5]", "value": -5.856, "unit": "SD"},
      {"measurement": "SD from mean (pilot screen)", "setting": "ATXN2-luc [5]; pilot screen", "value": -5.856, "unit": "SD"},
      {"measurement": "SD from mean (pilot screen)", "setting": "ATXN2-luc [5]; [16]", "value": -5.856},
      {"measurement": "¦Score/1SD¦", "setting": "ATXN2-luc [5]; pilot screen", "value": 6.51}
    ]}
  ]
}
